Experimental data taken from PubChem BioAssay AID1963826 (Molecular Pharmacology Branch, DTP, NCI, 2024).

Tested on: 926638-142-R-J1-PDC complex spheroid viability
Assay: Anticancer human tumor 926638-142-R-J1-PDC patient-derived endometrial carcinoma cell line growth inhibition [POLQ]
Settings: for IC50: curve of first compound; for viability, T/C: stronger effect = lower value
Protocol: Multicellular complex tumor spheroid response to Polymerase (POL) inhibitors (novobiocin, ART-558, RP6685) in combination with a variety of drugs and investigational agents in selected tumor cell lines
The POL inhibitors (novobiocin, ART-558, and RP6685) were evaluated both individually and in combination with standard of care and investigational anticancer small molecules within a complex spheroid model of solid tumors. . Complex spheroids include a stromal component modeled by human endothelial cells (HUVEC) and fibroblasts modeled by human mesenchymal stem cells (MSCs). The concentration ranges selected for each drug and investigational agent were based upon clinically achievable concentrations if the clinical Cmax of the agent was known.
Compounds. The drugs and investigational agents: novobiocin (NSC847541), ART-558 (NSC835418), RP-6685 (NSC848927), peposertib (NSC802822), ceralasertib (NSC780249), elimusertib (NSC800525), camonsertib (NSC841442), AZD-1390 (NSC803789), olaparib (NSC753686), talazoparib (NSC767125), rucaparib (NSC756644), sotorasib (NSC818433), MRTX-1133 (NSC836407), SN-38 (NSC673596), topotecan (NSC609699), epotoside (NSC141540), doxorubicin (NSC123127), gemcitabine (NSC613327), 5-fluorouracil (NSC19893), paclitaxel (NSC125973), vemurafenib (NSC761431), MSA-2 (NSC828583), SN-011 (NSC837082), adavosertib (NSC754352), prexasertib (NSC758257), carboplatin (NSC241240) and oxaliplatin (NSC266046), were obtained from the National Cancer Institute (NCI) Developmental Therapeutics Program Chemical Repository (21). The FDA-approved anticancer drug set is available from the Developmental Therapeutics Program at https://dtp.cancer.gov/organization/dscb/obtaining/. […] The stock solutions were prepared in dimethyl sulfoxide (DMSO, Sigma-Aldrich, St. Louis, MO, cat. D2650), except for the platinum compounds which were prepared in saline (Quality Biological, Gaithersburg, MD, cat. 114-055-101), at 800-fold the tested concentration and stored at -70 degrees C prior to their use. All drugs and investigational agents were tested over a range starting from a high concentration at or near the clinical Cmax and decreasing in half-log increments. If the clinical Cmax for an agent had not been determined, the highest concentration tested was 10 microM, except for SN-38, which was tested at a high concentration of 1 microM.
Cell Culture. All cells were maintained in an incubator at 37 degrees C and 5% CO2 with 95% humidity. The PDC lines were cultured according to standard operating procedures established by the NCI PDMR (https://pdmr.cancer.gov). Table 3 of the manuscript, lists the cell lines along with the number of the three cell types plated to form the mct-spheroids and media for tumor cell growth. After thawing, all PDC lines, except 997537-175-T-J1-PDC and 415267-285-R-J2-PDC, were cultured in Matrigel-coated flasks prepared with a working solution of 1X Ham's F-12 nutrient mix, without supplementation (Thermo Fisher Scientific, cat. 11765054), 100 U/mL penicillin-streptomycin (Thermo Fisher Scientific, cat. 15140122), and 2.5% Matrigel (Corning Inc., Corning, NY, cat. 354248) for the first three passages. The two PDC lines 997537-175-T-J1-PDC and 415267-285-R-J2-PDC were cultured on uncoated flasks. The 857933-349-R-J2-PDC line was cultured in 6C/Colon 1B media containing advanced DMEM/F-12 (Thermo Fisher Scientific, cat. 12634028), 10 mM HEPES (Thermo Fisher Scientific, cat. 15630080), 1X GlutaMAX supplement (Thermo Fisher Scientific, cat. 35050061), 0.1 mg/mL primocin (InvivoGen, San Diego, CA, cat. ant-pm-2), 10% defined fetal bovine serum, heat inactivated (HyClone Laboratories Inc., Logan, UT, cat. SH30070.03HI), 50% L-WRN conditioned media (ATCC, cat. CRL-3276), 1.25 mM N-Acetyl-L-cysteine (Sigma-Aldrich, cat. A9165), 10 mM nicotinamide (Sigma-Aldrich, cat. N0636), 1X B-27 supplement (Thermo Fisher Scientific, cat. 17504044), 1X N-2 supplement (Thermo Fisher Scientific, cat. […]

[1] = second compound 0.0316 µM, first compound 0.0316 µM
[2] = second compound 0.0316 µM, first compound 0.1 µM
[3] = second compound 0.0316 µM, first compound 0.316 µM
[4] = second compound 0.0316 µM, first compound 1 µM
[5] = second compound 0.0316 µM, first compound 3.16 µM
[6] = second compound 0.0316 µM, first compound 10 µM
[7] = second compound 0.1 µM, first compound 0.0316 µM
[8] = second compound 0.1 µM, first compound 0.1 µM
[9] = second compound 0.1 µM, first compound 0.316 µM
[10] = second compound 0.1 µM, first compound 1 µM
[11] = second compound 0.1 µM, first compound 3.16 µM
[12] = second compound 0.1 µM, first compound 10 µM
[13] = second compound 0.316 µM, first compound 0.0316 µM
[14] = second compound 0.316 µM, first compound 0.1 µM
[15] = second compound 0.316 µM, first compound 0.316 µM
[16] = second compound 0.316 µM, first compound 1 µM
[17] = second compound 0.316 µM, first compound 3.16 µM
[18] = second compound 0.316 µM, first compound 10 µM
[19] = second compound 1 µM, first compound 0.0316 µM
[20] = second compound 1 µM, first compound 0.1 µM
[21] = second compound 1 µM, first compound 0.316 µM
[22] = second compound 1 µM, first compound 1 µM
[23] = second compound 1 µM, first compound 3.16 µM
[24] = second compound 1 µM, first compound 10 µM
[25] = second compound 3.16 µM, first compound 0.0316 µM
[26] = second compound 3.16 µM, first compound 0.1 µM
[27] = second compound 3.16 µM, first compound 0.316 µM
[28] = second compound 3.16 µM, first compound 1 µM
[29] = second compound 3.16 µM, first compound 3.16 µM
[30] = second compound 3.16 µM, first compound 10 µM
[31] = second compound 10 µM, first compound 0.0316 µM
[32] = second compound 10 µM, first compound 0.1 µM
[33] = second compound 10 µM, first compound 0.316 µM
[34] = second compound 10 µM, first compound 1 µM
[35] = second compound 10 µM, first compound 3.16 µM
[36] = second compound 10 µM, first compound 10 µM
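Also: spheroids exposed to drugs for one week before readout.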
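For viability, T/C in this document: percent viability relative to DMSO vehicle control wells set as 100%.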

C#Cc1c(F)ccc2cc(O)cc(-c3ncc4c(N5CC6CCC(C5)N6)nc(OCC56CCCN5CC(F)C6)nc4c3F)c12 (centres undefined) + Cc1cccc(N(C)C(=O)C2C(O)CCN2c2nc(C)cc(C(F)(F)F)c2C#N)c1
IC50 (second compound 0.0316 µM): > 10000 nM
IC50 (second compound 0.1 µM): > 10000 nM
IC50 (second compound 0.316 µM): > 10000 nM
IC50 (second compound 1 µM): > 10000 nM
IC50 (second compound 3.16 µM): > 10000 nM
IC50 (second compound 10 µM): > 10000 nM
viability, T/C [1]: 90.9%
viability, T/C [2]: 76.7%
viability, T/C [3]: 69.9%
viability, T/C [4]: 63.8%
viability, T/C [5]: 58.3%
viability, T/C [6]: 56.9%
viability, T/C [7]: 87.2%
viability, T/C [8]: 96.2%
viability, T/C [9]: 84.6%
viability, T/C [10]: 71.9%
viability, T/C [11]: 60.5%
viability, T/C [12]: 63.9%
viability, T/C [13]: 86.2%
viability, T/C [14]: 75.1%
viability, T/C [15]: 78.2%
viability, T/C [16]: 71.8%
viability, T/C [17]: 54%
viability, T/C [18]: 61.7%
viability, T/C [19]: 95.2%
viability, T/C [20]: 76%
viability, T/C [21]: 66.9%
viability, T/C [22]: 76.2%
viability, T/C [23]: 70.9%
viability, T/C [24]: 52.5%
viability, T/C [25]: 81.1%
viability, T/C [26]: 84.3%
viability, T/C [27]: 89.2%
viability, T/C [28]: 58.5%
viability, T/C [29]: 60.1%
viability, T/C [30]: 53.5%
viability, T/C [31]: 84.8%
viability, T/C [32]: 79%
viability, T/C [33]: 67.2%
viability, T/C [34]: 71.8%
viability, T/C [35]: 58.4%
viability, T/C [36]: 66.5%

CCc1cc2c(N3CCc4c(cc(Cn5ccnc5)cc4-c4cn(C)nc4C(F)(F)F)C3=O)cc(C)nc2c(OC)n1 + Cc1cccc(N(C)C(=O)C2C(O)CCN2c2nc(C)cc(C(F)(F)F)c2C#N)c1
IC50 (second compound 0.0316 µM): 397 nM
IC50 (second compound 0.1 µM): 658 nM
IC50 (second compound 0.316 µM): 700 nM
IC50 (second compound 1 µM): 554 nM
IC50 (second compound 3.16 µM): 467 nM
IC50 (second compound 10 µM): 257 nM
viability, T/C [1]: 77.9%
viability, T/C [2]: 72%
viability, T/C [3]: 45.9%
viability, T/C [4]: 44.4%
viability, T/C [5]: 31.8%
viability, T/C [6]: 26.9%
viability, T/C [7]: 90.2%
viability, T/C [8]: 71%
viability, T/C [9]: 59.3%
viability, T/C [10]: 44%
viability, T/C [11]: 38.1%
viability, T/C [12]: 31.4%
viability, T/C [13]: 94.8%
viability, T/C [14]: 65.3%
viability, T/C [15]: 56.3%
viability, T/C [16]: 48.4%
viability, T/C [17]: 43.2%
viability, T/C [18]: 22.5%
viability, T/C [19]: 69%
viability, T/C [20]: 80.6%
viability, T/C [21]: 58.1%
viability, T/C [22]: 39.8%
viability, T/C [23]: 34.2%
viability, T/C [24]: 26.6%
viability, T/C [25]: 91.9%
viability, T/C [26]: 66.2%
viability, T/C [27]: 56.4%
viability, T/C [28]: 38%
viability, T/C [29]: 44%
viability, T/C [30]: 27.1%
viability, T/C [31]: 66.5%
viability, T/C [32]: 64.7%
viability, T/C [33]: 45.1%
viability, T/C [34]: 37.1%
viability, T/C [35]: 36%
viability, T/C [36]: 26.8%
